For the test, the system named is T1, CYP 3A4.
T1 construct: liver microsomes from phenobarbitone-pretreated male rats
Put plainly: fluorometric benzyloxyresorufin (BROD) assay in rat liver microsomes. It is filed as biochemical.

Usually IC50 stands for the concentration that gives 50% inhibition. Take `C=C1[C@@H]2CC[C@H]3[C@]4(C)CCC[C@@](C)(C(=O)O)[C@H]4CC[C@]3(C2)[C@@H]1OC(C)=O` [XA, xylopic acid]: it took 1.3 ± 0.01 µM to reach half-maximal inhibition (IC50). In the case of `CC(=O)N1CCN(c2ccc(OC[C@H]3CO[C@](Cn4ccnc4)(c4ccc(Cl)cc4Cl)O3)cc2)CC1` (racemic) [ketoconazole], the IC50 was […].

Source of the values: article PMC8799360, “In Vitro and In Vivo Effect of Xylopic Acid on Cytochrome P450 Enzymes” (Advances in Pharmacological and Pharmaceutical Sciences, 2022).
